{"source": "patent US4005220A", "about": "“Hemostatic compositions comprising salts of substituted hydroquinone sulfonic acid” (Laboratorios del Dr. Esteve, S.A., priority 1973, dated 1977)", "key": {"[1]": {"assay": "Partition coefficient butanol/water"}, "mice": {"test_system": "mice", "assay": "Acute toxicity in mice, LD50 (method of Reed and Muench)", "type": "in vivo", "details": "mice (summary table)", "protocol": "(§1) 1. Acute toxicity in mice\n(§2) Albino mice of 18 to 25 g. The LD50 was determined in accordance with the method of Reed and Muench.\n(§3) The acute toxicity in mice was determined in accordance with the method of REED and MUENCH, in a modified form (Reed L. J. and Muench H., Am. J. Hyg., 27, 493, 1938). The effect on the average bleeding time was determined by the Roskam technique modified by Laporte (Laporte J., Chemotherapia, 3, 62, 1961)."}, "[2]": {"test_system": "average bleeding time (A.B.T.)", "assay": "Activity-time relationship of the decrease in the A.B.T.", "type": "in vivo, rabbits", "details": "5 micromols/kg", "text": "3. Activity-time relationship"}, "[3]": {"test_system": "average bleeding time (A.B.T.)", "assay": "Effect on the average bleeding time (A.B.T.), Roskam technique modified by Laporte", "type": "in vivo", "details": "one hour after administration, rabbits", "protocol": "2. Effect on the average bleeding time\nas §3"}, "capillary permeability": {"test_system": "capillary permeability", "assay": "Protective effect on the capillaries: capillary permeability, BEACH-STEINITZ method in a modified form", "type": "in vivo", "details": "intraperitoneally, mice; in words", "text": "4. Protective effect on the capillaries"}, "[4]": {"assay": "Acute toxicity in mice, LD50 (method of Reed and Muench)", "type": "in vivo", "details": "mouse, in vivo, po", "protocol": "as §1, §2, §3"}}, "note": "“Also recorded” adds a separate entry of the source.", "data": [{"molecule": "Ammonium (tertiary butyl)-p-dihydroxybenzenesulphonate", "values": [{"measurement": "Partition coefficient butanol/water", "setting": "[1]", "result": 0.42}, {"measurement": "LD50", "setting": "mice; i.v.", "result": 600, "unit": "mg/kg"}]}, {"molecule": "lithium (tertiary butyl)-p-dihydroxybenzenesulphonate", "values": [{"measurement": "Partition coefficient butanol/water", "setting": "[1]", "result": 1.28}, {"measurement": "LD50", "setting": "mice; i.v.", "result": "1,000 mg/kg"}]}, {"molecule": "Calcium (tertiary butyl)-p-dihydroxybenzenesulphonate", "values": [{"measurement": "Partition coefficient butanol/water", "setting": "[1]", "result": 1.36}, {"measurement": "LD50", "setting": "mice; p.o.", "result": "2,337 mg/kg"}]}, {"molecule": "Diethylamine (tertiary butyl)-p-dihydroxybenzenesulphonate", "values": [{"measurement": "% decrease in the A.B.T.", "setting": "[2]; 1 hour after intravenous administration", "result": 42, "unit": "%"}, {"measurement": "% decrease in the A.B.T.", "setting": "[2]; 2 hours after intravenous administration", "result": 43.5, "unit": "%"}, {"measurement": "% decrease in the A.B.T.", "setting": "[2]; 4 hours after intravenous administration", "result": 41.0, "unit": "%"}, {"measurement": "% decrease in the A.B.T.", "setting": "[2]; 8 hours after intravenous administration", "result": 34.8, "unit": "%"}, {"measurement": "% decrease in the A.B.T.", "setting": "[2]; 16 hours after intravenous administration", "result": 33.0, "unit": "%"}, {"measurement": "% decrease in the A.B.T.", "setting": "[2]; 24 hours after intravenous administration", "result": 22.5, "unit": "%"}, {"measurement": "% decrease in the A.B.T.", "setting": "[2]; 48 hours after intravenous administration", "result": 14.0, "unit": "%"}, {"measurement": "duration of effect", "setting": "[2]; in words", "result": "lasts for a long time; also recorded: lasts for a markedly longer time than the products already described hitherto"}, {"measurement": "Partition coefficient butanol/water", "setting": "[1]", "result": 2.38}, {"measurement": "Decrease in the A.B.T. in %", "setting": "[3]; 0.625 micromols/kg", "result": 7, "unit": "%"}, {"measurement": "Decrease in the A.B.T. in %", "setting": "[3]; 1.25 micromols/kg", "result": 25, "unit": "%"}, {"measurement": "Decrease in the A.B.T. in %", "setting": "[3]; 2.5 micromols/kg", "result": 34, "unit": "%"}, {"measurement": "Decrease in the A.B.T. in %", "setting": "[3]; 5.0 micromols/kg", "result": 42, "unit": "%"}, {"measurement": "Decrease in the A.B.T. in %", "setting": "[3]; 7.05 (sic) micromols/kg", "result": 49, "unit": "%"}, {"measurement": "Decrease in the A.B.T. in %", "setting": "[3]; 10.0 micromols/kg", "result": 55, "unit": "%"}, {"measurement": "capillary permeability", "setting": "capillary permeability", "result": "marked decrease in the capillary permeability"}]}, {"molecule": "Sodium methyl-p-dihydroxybenzenesulphonate", "values": [{"measurement": "Partition coefficient butanol/water", "setting": "[1]", "result": 0.87}, {"measurement": "LD50", "setting": "mice; p.o.", "result": "> 1,000 mg/kg"}]}, {"molecule": "CC(C)(C)c1cc(O)c(S(=O)(=O)O)cc1O", "note": "[cyclohexylamine (tertiary butyl)-p-dihydroxybenzenesulphonate]", "values": [{"measurement": "LD50", "setting": "[4]", "result": 1000, "unit": "mg/kg"}]}]}
